In US20250049747A1, “USE OF HYPERPOLARIZING AGENTS ALONE AND IN COMBINATION WITH OTHER THERAPEUTIC AGENTS FOR TREATING CANCERS INCLUDING GLIOBLASTOMA” (Trustees of Tufts College, priority 2021, published 2025):

Experiments:
[1] = test system: human glioblastoma U87 cells; test: Growth and FUCCI assays in U87 cells (cell counts, cell cycle, recovery test); assay type: cell-based; conditions: for FUCCI cell cycle proportion: U87, day 6; for recovery of proliferation after treatment removed: U87, drugs removed at day 6, followed to day 10
Protocol: U87 (ATCC) cells were cultured under the same conditions as the NG108-15 cells minus the HAT supplement and used at passage 7-10 for experiments.

NG108-15 cells [2] = test: Automated patch-clamp electrophysiology, resting membrane potential; assay type: cell-based, mouse/rat; conditions: NG108-15, immediately after application
Protocol: Electrophysiology. SyncroPatch 384PE platform (Nanion Technologies®) was used to perform the automated patch-clamp experiments. This system provides giga-ohm resistance seals during simultaneous recording in the 384-well plate format. Cells were harvested 48-72 h after seeding 1-2×10^6 cells in T175 culture flasks (Falcon), then cells were rinsed with PBS (5 mL) and treated with 3 mL Accutase ([…] technologies) for 5 min at 37° C., re-suspended in 10 mL of serum-free media and pelleted at 1000 rpm for 3 min at RT. […] The cells were kept until the moment of the experiment in a temperature controlled dedicated reservoir at 10° C. and shaken at 200 rpm as described. The experiments were performed within one hour after the harvesting process. The assays were carried in single-hole chips with resistances between 4-5 MΩ after priming the chip with the following solutions (in mM), physiological extracellular solution (pECS) 10 HEPES, 140 NaCl, 5 Glucose, 4 KCl, 2 CaCl2), 1 MgCl2, 295-305 mOsm pH 7.4 (NaOH). Internal recording solution (in mM) 20 EGTA, 50 KCl, 10 NaCl, 60 KF, 10 HEPES at pH 7.2, and 285 mOsm. 15 μL of the cell suspension (50% v/v pECS/Medium no serum) was added to each well to a final density of 50-80K cells/mL. Cell capture was promoted by holding a negative pressure of −100 mbar for 20 s. After successive hyperpolarization steps from −30 mV to −100 mV enhanced the capture the seal followed by the transient addition of a high Ca2+ extracellular solution (80 mM NaCl, 3 mM KCl, 35 mM CaCl2), 10 mM MgCl2, 10 mM HEPES at pH 7.4 and 298 mOsm. High Ca2+ solution is washed out by successive external exchanges replacing half of the volume of the well each time with the external recording solution. All recording solutions were prepared with ultrapure MilliQ water (18 MD-cm). After the formation of the Giga-seal, a 250 mbar pressure was applied to break the membrane patch. Once in whole-cell configuration, different voltage protocols were applied to dissect different conductances in NG108-15 cells. Signals were recorded in the current-clamp mode “I=0” (passive conditions) where no current was injected, to monitor the membrane potential. The membrane potentials were recorded for seven sweeps of 1 sec, with an inter-sweep time of 10 s. The average membrane potentials of the 7 sweeps were reported.
Electrophysiology of NG108-15 Cells Show Changes in Resting Membrane Potential Induced by Treatment. […] Untreated cells were patched, baseline measurements were taken and then the drugs were added and the changes in the cell Vmem were recorded.

NG108-15 cells [3] = test: Antibody staining, BrdU and senescence assays in NG108-15 cells; assay type: cell-based, mouse/rat; conditions: NG108-15, 6 days
Protocol: Antibody Staining, BrdU and Senescence Assays. NG108-15 cells were plated on PEI and Matrigel coated plates at 15,000 or 30,000 cells/mL, U87 cells at 10,000 cells/mL and grown in imaging media for 6 days with drug treatment. Fresh media was added every 2 days. On day 6, cells were fixed with 4% formaldehyde in PBS for 30 minutes for all antibody staining, except for BrdU which was fixed for 15 minutes, and for the senescence assay which was fixed for 20 min using the Senescence Beta-Galactosidase Staining Kit (9860, CellSignaling) and thereafter stained according to manufacturer's protocol. After fixing, cells were washed twice with PBS, and were permeabilized in PBS with 0.3% Triton-X for 15 min then washed again twice with PBS. The cells for the BrdU assay were additionally treated with 1N HCl for 10 min on ice, followed by a treatment with 2N HCl for 50 min at room temp. Cells were then blocked with standard blocking buffer comprised of TBS containing 10% goat serum, 0.1% BSA, and with 0.05% Tween 20 or without detergent for antibodies against phosphorylated proteins or monoclonal antibodies except for Anti-YAP and Anti-BrdU staining, which were done according to manufacturer's protocol. Primary antibodies were added at the following concentrations: 1:250 anti-S100 beta (GTX129573, Genetex), 1:500 anti-GFAP (AB5804, EMD-Millipore), 1:300 anti-SOX10 (ab155279, Abcam), 1:100 MAP2 (4542, CellSignaling), 1:400 anti-cleaved caspase 3 (9661, CellSignaling), 1:300 anti-Cx43 (STJ2411, St. John's Labratory), 1:800 anti-p27^Kip1 (3698, CellSignaling), 1:150 anti-BrdU (5292, CellSignaling), 1:125 anti-LC3-II (2775, CellSignaling), 8 μg/mL anti-04 (MAB1326, R&D Systems), 1:1000 anti-TH (RPCA-TH, Encor), 1:4000 anti-NSE (RPCA-NSE, Encor), 1:4000 anti-NFM (RPCA-NF-M, Encor), 0.5 μg/mL anti-TujI (801202, Biolegend), 1:400 anti-NF-KB p65 (8242, CellSignaling), 1:125 anti-phospho CREB (05-807, EMD-Millipore), 1:250 anti-vimentin (ab92547, Abcam), 1:125 anti-YAP (14074, CellSignaling). Antibodies were diluted in their respective blocking buffer and incubated overnight at 4° C. The next day, cells were washed with TBS-T or TBS for 3× for 5 min each and secondary antibody was added as follows: 1:1000 donkey anti-mouse 647 (A-31571, Thermo-Fisher) or 1:1000 donkey anti-rabbit 647 (A-31573, Thermo-Fisher). Each were diluted in blocking buffer along with 2.5 μg/mL Hoechst 33342 and incubated for 1 hour at room temperature. Cells were then washed again with TBS-T or TBS for 3× for 5 min each and covered with Gelvatol. Cells were imaged with an EVOS M7000 system, with at least 50% of each well in a 96 well plate imaged and analyzed using a CellProfiler pipeline for measuring integrated intensity, mean intensity, or nuclear to cytoplasmic ratio of mean intensities.

## O=C(Nc1cc(C(F)(F)F)ccc1O)Nc1cc(C(F)(F)F)ccc1O [NS1643]
[1]; U87, 6 days, NS1643 at 50 μM
  fold decrease in cell proliferation to control: 1.7 fold
[1]
  FUCCI cell cycle proportion: did not show a large change in proportion of cells
  recovery of proliferation after treatment removed: high increase in proliferation
NG108-15 cells [2]
  change in resting membrane potential compared to control: significantly hyperpolarized
NG108-15 cells [3]
  cleaved caspase 3 staining: decrease the cleaved caspase 3 positive cells significantly
  size of the nuclei: significantly larger

## COc1ccnc(C[S+]([O-])c2nc3ccc(OC(F)F)cc3[nH]2)c1OC (centres unmarked) [Pantoprazole, pantoprazole]
[1]; U87, 6 days
  cell proliferation compared to single compound alone: significantly more effective at reducing cell proliferation after 6 days of treatment than TMZ alone
[1]; U87, 6 days of treatment
  percent reduction in cells compared to control: 54%
[1]
  FUCCI cell cycle proportion: increase in the early S proportion of cells
  recovery of proliferation after treatment removed: immediately re-entered the cell cycle
NG108-15 cells [2]
  change in resting membrane potential compared to control: did not have an immediate effect
NG108-15 cells [3]
  BrdU incorporation: significant decrease
  S100B and GFAP markers: significantly upregulated
  cleaved caspase 3 staining: significant increase in cleaved caspase 3 staining
  connexin 43 (Cx43) expression: increase in connexin 43 (Cx43) expression
  senescence-associated beta-galactosidase activity stain: very significant increase
  size of the nuclei: significantly larger
